{"source": "patent US20210052705A1", "about": "“METHOD OF DRUG […] FOR PTH, PTHrP AND RELATED PEPTIDES” (Radius Health, Inc., priority 2011, published 2021)", "key": {"clinical": {"assay": "clinical", "settings": "female, human, in vivo, LS Mean; for AUC(0-inf): AUC0-inf; for AUC(0-t): AUC0-t"}, "[1]": {"settings": "female, human, in vivo"}, "in vivo": {"assay": "in vivo", "settings": "male, Sprague Dawley, rat; for bioavailability: % F; for AUC(0-t): AUC0-t; for half-life: T1/2", "method": "Certain drug coated microarrays were tested in vivo in a preclinical model using Sprague Dawley rats. […] Male Sprague Dawley rats with jugular vein catheters were purchased from Charles River Laboratories. Once received, they were acclimated for at least 24 hours prior to dosing.\nTypically, one hour prior to dosing microneedle arrays were removed from refrigeration (approximately 4° C.) and allowed to equilibrate to room temperature.\nThe standard procedure for skin preparation and microneedle array application is as follows.\nOne day prior to dosing, an area just above the hind legs on the dorsal surface of the rat was shaved using electric clippers. Nair® hair removal lotion (Church & Dwight Co.) was then applied to the area for 5 to 8 minutes to remove remaining fur stubble. The Nair® lotion was then thoroughly removed using a damp cloth. The next day a microneedle array was applied using a spring-loaded applicator. The microneedle array was left in contact with skin for five minutes, before being removed. During array application and contact time the rats were manually restrained.\nBlood was collected at three time points from each animal out of a possible total of five time destinations (5 minutes, 15 minutes, 30 minutes, 45 minutes, 90 minutes) from each rat on a staggered schedule so that all time points would be represented with extra sampling at 15 minutes without overdrawing from any animal. Approximately 1 mL of blood was collected via the catheter from the jugular vein using a syringe and needle from rats for their first two blood draws. For the terminal blood collection, animals were euthanized via CO2 chamber and approximately 1 mL of blood was collected via cardiac puncture. The blood was immediately transferred to a serum separator tube that contained 25 μL of a 2.5 mg/ml aprotinin (Sigma) solution.\nBlood was collected from each rat 5, 10, 15, 30 and 45 minutes post dose. Approximately 600 μL of blood was collected via the catheter from the jugular vein using a syringe and needle from rats for their first four blood draws. For the terminal blood collection, animals were euthanized via CO2 chamber and approximately 600 μL of blood was collected via cardiac puncture. The blood was immediately transferred to a serum separator tube that contained 12 μL of a 2.5 mg/ml aprotinin (Sigma) solution.\nBlood was collected three or four times from each rat at the time points depicted in the tables below. Approximately 1 mL of blood was collected via the catheter from the jugular vein using a syringe and needle from rats for any non-terminal time points. For the terminal blood collection, animals were euthanized via CO2 chamber and approximately 1 mL of blood was collected via cardiac puncture. The blood was immediately transferred to a serum separator tube that contained 20 μL of a 2.5 mg/ml aprotinin (Sigma) solution.\nBlood was collected from each rat 5, 15, 30, 45, 90 and 120 minutes post dose. Approximately 500 μL of blood was collected via the catheter from the jugular vein using a syringe and needle from rats for their first five blood draws. For the terminal blood collection, animals were euthanized via CO2 chamber and approximately 500 μL of blood was collected via cardiac puncture."}, "[2]": {"settings": "9.8 ug, Concentrations of Peptide in Serum"}, "[3]": {"settings": "20 ug, Concentration of Peptide in Serum, Mean"}, "[4]": {"settings": "22 ug, Concentration of Peptide in Serum, Mean"}, "[5]": {"settings": "26.2 ug, Concentration of Peptide in Serum, Mean"}, "[6]": {"settings": "26.2 ug, Concentrations of Peptide in Serum"}, "[7]": {"settings": "27 ug, Concentration of Peptide in Serum, Mean"}, "[8]": {"settings": "27 ug, Concentrations of Peptide in Serum"}, "[9]": {"settings": "31 ug, Concentration of Peptide in Serum, Mean"}}, "note": "Like-named read-outs stand apart in the source and are kept apart here."}
{"compound": "CC[C@H](C)[C@H](NC(=O)[C@H](CO)NC(=O)[C@H](CCCCN)NC(=O)CNC(=O)[C@H](CCCCN)NC(=O)[C@H](CC(=O)O)NC(=O)[C@H](Cc1cnc[nH]1)NC(=O)[C@H](CC(C)C)NC(=O)[C@H](CC(C)C)NC(=O)[C@H](CCC(N)=O)NC(=O)[C@H](Cc1cnc[nH]1)NC(=O)[C@H](CCC(=O)O)NC(=O)[C@H](CO)NC(=O)[C@@H](NC(=O)[C@H](C)N)C(C)C)C(=O)N[C@@H](CCC(N)=O)C(=O)N[C@@H](CC(=O)O)C(=O)N[C@@H](CC(C)C)C(=O)N[C@@H](CCCNC(=N)N)C(=O)N[C@@H](CCCNC(=N)N)C(=O)N[C@@H](CCCNC(=N)N)C(=O)N[C@@H](CCC(=O)O)C(=O)N[C@@H](CC(C)C)C(=O)N[C@@H](CC(C)C)C(=O)N[C@@H](CCC(=O)O)C(=O)N[C@@H](CCCCN)C(=O)N[C@@H](CC(C)C)C(=O)N[C@@H](CC(C)C)C(=O)NC(C)(C)C(=O)N[C@@H](CCCCN)C(=O)N[C@@H](CC(C)C)C(=O)N[C@@H](Cc1cnc[nH]1)C(=O)N[C@H](C(=O)N[C@@H](C)C(N)=O)[C@@H](C)O", "note": "[Peptide]", "values": [{"measurement": "AUC(0-inf)", "setting": "clinical; 100 ug", "value": 0.0885, "unit": "ng·h/mL"}, {"measurement": "AUC(0-t)", "setting": "clinical; 100 ug", "value": 0.112, "unit": "ng·h/mL"}, {"measurement": "Cmax", "setting": "clinical; 100 ug", "value": 0.366, "unit": "ng/mL"}, {"measurement": "AUC(0-inf)", "setting": "clinical; 150 ug", "value": 0.119, "unit": "ng·h/mL"}, {"measurement": "AUC(0-t)", "setting": "clinical; 150 ug", "value": 0.107, "unit": "ng·h/mL"}, {"measurement": "Cmax", "setting": "clinical; 150 ug", "value": 0.315, "unit": "ng/mL"}, {"measurement": "AUC(0-inf)", "setting": "clinical; 200 ug", "value": 0.11, "unit": "ng·h/mL"}, {"measurement": "AUC(0-t)", "setting": "clinical; 200 ug", "value": 0.0975, "unit": "ng·h/mL"}, {"measurement": "Cmax", "setting": "clinical; 200 ug", "value": 0.337, "unit": "ng/mL"}, {"measurement": "AUC0-inf, LS Mean", "setting": "[1]; 150 ug", "value": 0.15742, "unit": "ng·h/mL"}, {"measurement": "AUC0-t, LS Mean", "setting": "[1]; 150 ug", "value": 0.14285, "unit": "ng·h/mL"}, {"measurement": "Cmax, LS Mean", "setting": "[1]; 150 ug", "value": 0.31197, "unit": "ng/mL"}, {"measurement": "AUC0-inf, LS Mean", "setting": "[1]; 200 ug", "value": 0.19016, "unit": "ng·h/mL"}, {"measurement": "AUC0-t, LS Mean", "setting": "[1]; 200 ug", "value": 0.16679, "unit": "ng·h/mL"}, {"measurement": "Cmax, LS Mean", "setting": "[1]; 200 ug", "value": 0.48945, "unit": "ng/mL"}, {"measurement": "bioavailability", "setting": "in vivo; 9.8 ug", "value": 49, "unit": "%"}, {"measurement": "AUC(0-t)", "setting": "in vivo; 9.8 ug", "value": 5.72, "unit": "ng·h/mL"}, {"measurement": "Cmax", "setting": "in vivo; 9.8 ug, Cmax", "value": 12, "unit": "ng/mL"}, {"measurement": "level at 5 min", "setting": "in vivo; [2]", "value": 12, "unit": "ng/mL"}, {"measurement": "level at 0.25 h", "setting": "in vivo; [2]", "value": 9.65, "unit": "ng/mL"}, {"measurement": "level at 0.5 h", "setting": "in vivo; [2]", "value": 4.96, "unit": "ng/mL"}, {"measurement": "level at 0.75 h", "setting": "in vivo; [2]", "value": 2.07, "unit": "ng/mL"}, {"measurement": "level at 1 h", "setting": "in vivo; [2]", "value": 1.47, "unit": "ng/mL"}, {"measurement": "level at 1.5 h", "setting": "in vivo; [2]", "value": 0.62, "unit": "ng/mL"}, {"measurement": "level at 2 h", "setting": "in vivo; [2]", "value": 0.38, "unit": "ng/mL"}, {"measurement": "half-life", "setting": "in vivo; 9.8 ug", "value": 22, "unit": "min"}, {"measurement": "Tmax", "setting": "in vivo; 9.8 ug", "value": 5, "unit": "min"}, {"measurement": "bioavailability", "setting": "in vivo; 20 ug", "value": 47, "unit": "%"}, {"measurement": "AUC(0-t)", "setting": "in vivo; 20 ug", "value": 9.6, "unit": "ng·h/mL"}, {"measurement": "Cmax", "setting": "in vivo; 20 ug, Cmax", "value": 11.9, "unit": "ng/mL"}, {"measurement": "level at 5 min", "setting": "in vivo; [3]", "value": 9.34, "unit": "ng/mL"}, {"measurement": "level at 0.25 h", "setting": "in vivo; [3]", "value": 11.9, "unit": "ng/mL"}, {"measurement": "level at 0.5 h", "setting": "in vivo; [3]", "value": 6.4, "unit": "ng/mL"}, {"measurement": "level at 0.75 h", "setting": "in vivo; [3]", "value": 7.12, "unit": "ng/mL"}, {"measurement": "level at 1.5 h", "setting": "in vivo; [3]", "value": 3.14, "unit": "ng/mL"}, {"measurement": "half-life", "setting": "in vivo; 20 ug", "value": 43, "unit": "min"}, {"measurement": "Tmax", "setting": "in vivo; 20 ug", "value": 15, "unit": "min"}, {"measurement": "bioavailability", "setting": "in vivo; 20 ug/kg", "value": 69, "unit": "%"}, {"measurement": "AUC(0-t)", "setting": "in vivo; 20 ug/kg", "value": 2.77, "unit": "ng·h/mL"}, {"measurement": "Cmax", "setting": "in vivo; 20 ug/kg, Cmax", "value": 7.29, "unit": "ng/mL"}, {"measurement": "Cmax", "setting": "in vivo; 20 ug/kg, Cmax (20 μg/kg Dose)", "value": 7.29, "unit": "ng/mL"}, {"measurement": "half-life", "setting": "in vivo; 20 ug/kg", "value": 18, "unit": "min"}, {"measurement": "Tmax", "setting": "in vivo; 20 ug/kg", "value": 10, "unit": "min"}, {"measurement": "bioavailability", "setting": "in vivo; 22 ug", "value": 36, "unit": "%"}, {"measurement": "AUC(0-t)", "setting": "in vivo; 22 ug", "value": 7.75, "unit": "ng·h/mL"}, {"measurement": "Cmax", "setting": "in vivo; 22 ug, Cmax", "value": 17.1, "unit": "ng/mL"}, {"measurement": "level at 5 min", "setting": "in vivo; [4]", "value": 17.1, "unit": "ng/mL"}, {"measurement": "level at 0.25 h", "setting": "in vivo; [4]", "value": 13.2, "unit": "ng/mL"}, {"measurement": "level at 0.5 h", "setting": "in vivo; [4]", "value": 6.46, "unit": "ng/mL"}, {"measurement": "level at 0.75 h", "setting": "in vivo; [4]", "value": 3.35, "unit": "ng/mL"}, {"measurement": "level at 1.5 h", "setting": "in vivo; [4]", "value": 0.8, "unit": "ng/mL"}, {"measurement": "half-life", "setting": "in vivo; 22 ug", "value": 19, "unit": "min"}, {"measurement": "Tmax", "setting": "in vivo; 22 ug", "value": 5, "unit": "min"}, {"measurement": "bioavailability", "setting": "in vivo; 26.2 ug", "value": 101, "unit": "%"}, {"measurement": "AUC(0-t)", "setting": "in vivo; 26.2 ug", "value": 24.1, "unit": "ng·h/mL"}, {"measurement": "Cmax", "setting": "in vivo; 26.2 ug, Cmax", "value": 44, "unit": "ng/mL"}, {"measurement": "level at 5 min", "setting": "in vivo; [5]", "value": 34.6, "unit": "ng/mL"}, {"measurement": "level at 0.25 h", "setting": "in vivo; [5]", "value": 44, "unit": "ng/mL"}, {"measurement": "level at 0.5 h", "setting": "in vivo; [5]", "value": 17.3, "unit": "ng/mL"}, {"measurement": "level at 0.75 h", "setting": "in vivo; [5]", "value": 13.8, "unit": "ng/mL"}, {"measurement": "level at 1.5 h", "setting": "in vivo; [5]", "value": 2.22, "unit": "ng/mL"}, {"measurement": "level at 5 min", "setting": "in vivo; [6]", "value": 41.1, "unit": "ng/mL"}, {"measurement": "level at 10 min", "setting": "in vivo; [6]", "value": 26.7, "unit": "ng/mL"}, {"measurement": "level at 0.25 h", "setting": "in vivo; [6]", "value": 42.8, "unit": "ng/mL"}, {"measurement": "level at 0.5 h", "setting": "in vivo; [6]", "value": 17.4, "unit": "ng/mL"}, {"measurement": "level at 0.75 h", "setting": "in vivo; [6]", "value": 12.5, "unit": "ng/mL"}, {"measurement": "half-life", "setting": "in vivo; 26.2 ug", "value": 18, "unit": "min"}, {"measurement": "Tmax", "setting": "in vivo; 26.2 ug", "value": 15, "unit": "min"}, {"measurement": "AUC(0-t)", "setting": "in vivo; 27 ug", "value": 17, "unit": "ng·h/mL"}, {"measurement": "Cmax", "setting": "in vivo; 27 ug, Cmax", "value": 31, "unit": "ng/mL"}, {"measurement": "level at 5 min", "setting": "in vivo; [7]", "value": 32.6, "unit": "ng/mL"}, {"measurement": "level at 0.25 h", "setting": "in vivo; [7]", "value": 31, "unit": "ng/mL"}, {"measurement": "level at 0.5 h", "setting": "in vivo; [7]", "value": 18.1, "unit": "ng/mL"}, {"measurement": "level at 5 min", "setting": "in vivo; 27 ug, Concentration of Peptide in Serum, individual rat", "value": 28.2, "unit": "ng/mL"}, {"measurement": "level at 5 min", "setting": "in vivo; [8]", "value": 27.4, "unit": "ng/mL"}, {"measurement": "level at 0.25 h", "setting": "in vivo; [8]", "value": 29.7, "unit": "ng/mL"}, {"measurement": "level at 0.5 h", "setting": "in vivo; [8]", "value": 12.2, "unit": "ng/mL"}, {"measurement": "level at 0.75 h", "setting": "in vivo; [8]", "value": 9.1, "unit": "ng/mL"}, {"measurement": "half-life", "setting": "in vivo; 27 ug", "value": 20, "unit": "min"}, {"measurement": "Tmax", "setting": "in vivo; 27 ug", "value": 15, "unit": "min"}, {"measurement": "bioavailability", "setting": "in vivo; 31 ug", "value": 42, "unit": "%"}, {"measurement": "AUC(0-t)", "setting": "in vivo; 31 ug", "value": 12.5, "unit": "ng·h/mL"}, {"measurement": "Cmax", "setting": "in vivo; 31 ug, Cmax", "value": 23.6, "unit": "ng/mL"}, {"measurement": "level at 5 min", "setting": "in vivo; [9]", "value": 20.3, "unit": "ng/mL"}, {"measurement": "level at 0.25 h", "setting": "in vivo; [9]", "value": 23.6, "unit": "ng/mL"}]}
